Measurements taken from PubChem BioAssay AID2305 (GlaxoSmithKline (GSK), 2010).
Several values for one entry are separate records, joined by “and”; a condition that tells them apart may be missing. Equal values may be shown once.

tested on: P. falciparum 3D7 growth, pLDH absorbance; test: blood-stage malaria parasite growth potency – strain 3D7, dose response (AID 2305)

SMILES	IC50
COc1ccc(C=CC(=O)NC(=O)c2ccccc2OC(=O)c2ccccc2)cc1OC	910 nM
CCOc1cc(C)ccc1C1CCN(CCCCNC(=O)c2cnc(-c3ccc(C(F)(F)F)cc3)[nH]2)CC1	770 nM
CCN(CCNC(=O)Cn1c(C)cc2cc([N+](=O)[O-])ccc21)c1cccc(C)c1	1010 nM
Cc1ccc(NC(=O)c2c(C)noc2-c2snnc2C)cc1	1370 nM
COc1cc(OCCCN(C)Cc2ccc(OC)c(OC)c2)ccc1NC(=O)c1cccc2c(=O)c3cccc(F)c3[nH]c12	890 nM
CC1CN=C(c2ccc(NC(=O)c3ccc(C(=O)Nc4ccc(C5=NCC(C)N5)cc4)cc3)cc2)N1 (centres undefined)	30 nM
COc1ccc(-n2c(=O)c3c(n4c(SC(C)C)nnc24)-c2ccccc2CC32CCCCC2)cc1	500 nM
CN1CCN(c2ccnc3ccc(NC(=O)Nc4ccc(-c5ccncc5)c(C(F)(F)F)c4)cc23)CC1	820 nM
COc1cc2nc(NCCc3ccccc3)nc(NCc3nccs3)c2cc1OC	530 nM
CCCCc1ccc2[nH]cc(C(=O)OCC)c(=O)c2c1	630 nM
Cn1nccc1C(=O)NCCNCc1ccc(-c2ccc(-c3nc4ccc(C(F)(F)F)cc4[nH]3)s2)cc1	190 nM
O=[N+]([O-])c1ccc(-c2nc3ccc(C4=N[C@H]5CCCC[C@H]5N4)cc3[nH]2)cc1	690 nM
N/C(=N\c1cccc(Cc2ccc([N+](=O)[O-])cc2)n1)Nc1ccccc1	950 nM
COc1ccccc1Nc1nc(C)cc(NCc2ccc(-n3ccnc3)cc2)n1	1050 nM
CC1CCN(CC[C@H]2CCCN2S(=O)(=O)c2cccc(NC(=O)c3cc4ccccc4s3)c2)CC1	830 nM
CCOc1ccc2c(c1)OC(c1ccccc1)(C(F)(F)F)NC2=O (centres undefined)	170 nM
CN(C)CCN1CCN(CCCN2c3ccccc3Sc3ccc(C(F)(F)F)cc32)CC1	760 nM
CC(=O)Nc1ccc(CN2CCC(NC(=O)c3ccc(-c4cccc(C(F)(F)F)c4)s3)CC2)cc1	890 nM
O=C(Nc1ccc([N+](=O)[O-])cc1Br)c1cc2ccccc2nc1Cl	190 nM
CSc1nccc(-c2ccc(S(=O)(=O)NC3CCC(CN4CCC(c5c[nH]c6ccccc56)CC4)CC3)s2)n1 (centres undefined)	250 nM and 810 nM
Cc1cccc2[nH]c(-c3cccc(-c4ccc(NC(=O)Nc5ccc6c(c5)OCO6)cc4)c3)nc12	140 nM
Cc1cc(N2CCCC2)nc(Nc2ccc(NC(=O)c3cccc(F)c3)cc2)n1	180 nM
O=C(/C=C/c1ccc(Cl)c(Cl)c1)N1CCC(CCN2CCC(c3c[nH]c4ccncc34)CC2)CC1	1140 nM
COc1ccc2nc3cc(Cl)ccc3c(Nc3ccc(O)c(CN4CC5CCC(CC5)C4)c3)c2c1	170 nM
CC(=O)c1ccc(NC(=O)Nc2ccc3nccc(N4CCN(C)CC4)c3c2)cc1	430 nM

SMILES	IC50
CNC(=O)/C=C/c1cc(NC(=O)Nc2ccnc3c(Br)cccc23)ccc1OC	860 nM
CC(C)(C)c1cc(C(=O)N2CCC(c3ccccn3)CC2)n(Cc2ccccc2)n1	960 nM
CC(C)CNCc1ccc(-c2ccc(CN(CCCN3CCN(C)CC3)C(=O)CCC3CCCC3)cc2)cc1	1060 nM
Cc1nnc(N2C(=N)SC(=Cc3ccc(-c4ccc(OC(F)(F)F)cc4)o3)C2=O)s1	530 nM
COc1ccc(OC)c(NC(=O)c2c(-c3c(F)cccc3Cl)noc2C)c1	700 nM
Nc1ccc(-c2nc3c(ccc4ccccc43)[nH]2)cc1	940 nM
COc1ccc(CC2(c3ccc(F)cc3)N=C(N)N(CCCc3ccccc3)C2=O)cc1 (centres undefined)	610 nM
COc1cc(NC(=O)c2cccs2)c(OC)cc1NC(=O)Nc1cccc(Cl)c1	1000 nM
CCc1c(CCNCC/C=C/CCNCCc2ccc(OC)c(OC)c2CC)ccc(OC)c1OC	770 nM
CCOCCCn1c(=N)c(C(=O)NCc2ccc(OC)cc2)cc2c(=O)n3cccc(C)c3nc21	1060 nM
COc1cc2c(c(Cl)c1OC)CCN(C(=O)C(F)(F)F)CC2c1ccccc1 (centres undefined)	440 nM
Clc1ncccc1-c1nc(NCCC(c2ccccc2)c2ccccc2)no1	1000 nM
O=C(c1cnn(-c2ccccc2)c1C(F)(F)F)N1CCN(c2ccnc3cc(Cl)ccc23)CC1	530 nM
COc1cccc(Cc2cnc3nc(N)nc(N)c3c2C)c1	170 nM
Cc1cccc2[nH]c(-c3ccc(-c4ccc(CNCCc5ccncc5)cc4)cc3)nc12	210 nM
Cc1[nH]c(C)c(-c2ccc(Oc3ccc(Cl)cc3Cl)cc2)c(=O)c1Br	300 nM
CCn1c(-c2nonc2N)nc2c(-c3cccc(NC(=O)Nc4ccc(Cl)cc4)c3)ncc(OCCCN)c21	830 nM
CC(C)(C)OC(=O)n1cc(C2CCN(CCCC34CCCc5cccc(c53)NC4=O)CC2)c2ccncc21 (centres undefined)	880 nM
Cc1nn(-c2ccccc2)nc1C(=O)N(Cc1ccc(-c2ccc(CNCCc3ccc(S(C)(=O)=O)cc3)cn2)cc1)C(C)CN(C)C (centres undefined)	680 nM
COc1ccc2ncc(F)c([C@@H](O)CN3CCC(NCc4cc5c(cn4)OCS5)CC3)c2c1	140 nM
COc1ccc(-n2ccnc2SCC(=O)Nc2cc(C)ccc2C)c(OC)c1	200 nM
COc1ccc(C2CC(=O)C3=C(C2)NC(C)=C(C(=O)OC(C)C)C3c2c(F)cccc2Cl)cc1OC (centres undefined)	820 nM
N#Cc1cccc(NC(=O)Nc2ccc3c(c2)CN(Cc2c[nH]c4ncccc24)C3)c1	800 nM
COc1ccc2[nH]c(C(=O)Nc3ccc4nc(-c5ccccc5)[nH]c4c3)cc2c1	830 nM
